Experimental data published in PMC12175907 (Science Advances, 2025).

Columns and labels:
DIO GLP-1R KO mice = test: chronic treatment, food intake and body weight, DIO GLP-1R KO mice; type: in vivo, mouse; conditions: GIP-085 300 nmol/kg, semaglutide 3 nmol/kg or combo, sc daily, 16 days; n = 6 per group
Text: (§1) DIO adult male C57BL/6 mice (Taconic) C57BL/6 (n = 23, weighing ~43 g at arrival), GLP-1R KO (germline knockout line: 11549, n = 24, weighing ~38 g at arrival), and GIPR KO mice (germline knockout line: 2886, n = 24, weighing ~35 g at arrival) were used. Upon arrival, mice were individually housed and continued to be fed ad libitum on high-fat/high-sugar diet (60% fat diet, 12492, Research Diets).
(§2) GIPFA-085 (GIP-085), tirzepatide, and GLP-140 were designed and produced by Eli Lilly and Company. GIP-085, GLP-140, and semaglutide (Cayman Chemical) were dissolved in 40 mM tris-HCl buffer (pH 8) and 0.02% Tween 80. For the study in mice, all drugs were injected subcutaneously at a volume of 5 ml/kg of body weight. In rats, all drugs were injected intraperitoneally, at a volume of 1 ml/kg of body weight, except when noted. In shrews, all drugs were injected intraperitoneally at a volume of 10 ml/kg of body weight.
(§3) C57BL/6 wild-type (n = 23), GLP-1R KO (n = 24), and GIPR KO mice (n = 24) received daily subcutaneous administration of GIP-085 (300 nmol/kg), semaglutide (3 nmol/kg), GIP-085/semaglutide combo, or vehicle for 16 days. Food intake and body weight were manually measured daily. […] Body composition of mice was determined using quantitative nuclear magnetic resonance analysis (ECHO MRI, 3-1 Composition Analyzer; Echo Medical Systems). […]

DIO GIPR KO mice = test: chronic treatment, food intake and body weight, DIO GIPR KO mice; type: in vivo, mouse; conditions: inferred from GIPR KO DIO mice
Text: as §1, §2, §3

shrews [1] = test: IPGTT, semaglutide, shrews; type: in vivo, Suncus murinus; conditions: 10, 100 and 500 nmol/kg ip, 30 min before glucose 2 g/kg ip, 20 min post-glucose, n = 8 per group
Text: (§4) Adult male shrews (S. murinus) weighing ~50 to 80 g (n = 84 total) were bred and maintained in the De Jonghe Lab (University of Pennsylvania). These animals were offspring from a colony previously maintained at the University of Pittsburgh Cancer Institute (C. Horn); a Taiwanese strain was derived from stock originally supplied by the Chinese University of Hong Kong. Shrews were singly housed in plastic cages (37.3 cm by 23.4 cm by 14 cm, Innovive) under a 12-hour/12-hour light/dark cycle in a temperature-controlled and humidity-controlled environment. Animal were fed ad libitum with a mixture of feline (75%, Laboratory Feline Diet 5003, Lab Diet) and mink food (25%, High Density Ferret Diet 5LI4, Lab Diet) and had ad libitum access to tap water except where noted.
The protocol for performing an IPGTT in shrews (n = 16) was previously described ([27]). Briefly, each shrews received intraperitoneal injection of semaglutide (10, 100, and 500 nmol/kg) or vehicle (10 ml/kg body weight) followed 30 min later by a glucose bolus injection [2 g/kg, intraperitoneally (ip)]. Blood glucose readings were taken at −30, 0, 20, 40, 60, and 120 min post-glucose administration. This study was conducted using a partial within-subject design, with each animal receiving two treatments separated by a 7-day interval.

[2] = system: adults with overweight or obesity; design: method as in 2 sources, ref 4 = [4]; PMID 33567185; doi:10.1056/NEJMoa2032183; 4 J. P. H. Wilding , R. L. Batterham , S. Calanna , M. Davies , L. F. Van Gaal , I. Lingvay , B. M. McGowan , J. Rosenstock , M. T. D. Tran , T. A. Wadden , S. Wharton , K. Yokote , N. Zeuthen , R. F. ||| ref 6 = [6]; PMID 34514682; doi:10.1111/dom.14551; 6 S. Wharton , S. Calanna , M. Davies , D. Dicker , B. Goldman , I. Lingvay , O. Mosenzon , D. M. Rubino , M. Thomsen , T. A. Wadden , S. D. Pedersen , Gastrointestinal tolerability of once-weekly sem; conditions: cited from earlier work
GLP-1R KO DIO mice = test: body composition (ECHO MRI), GLP-1R KO DIO mice; type: in vivo, mouse; conditions: n=6 per group
Protocol: (§5) C57BL/6 wild-type (n = 23), GLP-1R KO (n = 24), and GIPR KO mice (n = 24) received daily subcutaneous administration of GIP-085 (300 nmol/kg), semaglutide (3 nmol/kg), GIP-085/semaglutide combo, or vehicle for 16 days. Food intake and body weight were manually measured daily. The average body weight at the start of the experiment was 43.7 ± 0.4 g for the wild-type group, 39.0 ± 0.6 g for the GLP-1R KO group, and 36.5 ± 0.4 g for the GIPR KO group. Body composition of mice was determined using quantitative nuclear magnetic resonance analysis (ECHO MRI, 3-1 Composition Analyzer; Echo Medical Systems). At the end of the experiment, the animals were euthanized by CO2.

shrews [3] = test: food intake and body weight, semaglutide, GIP-085 and combo, shrews; type: in vivo, Suncus murinus; conditions: semaglutide alone, 500 nmol/kg ip; n = 8
Text: as §4
First, we compared the effects of semaglutide (500 nmol/kg), GIP-085 (300 nmol/kg), GIP-085/semaglutide, or vehicle on food intake and body weight in the same animals (n = 8, ~54 ± 2 g) using in a within-subject, counterbalanced design. This experiment was conducted as described above. Each treatment was 7 days apart.

DIO wild-type mice = test: body composition (ECHO MRI), DIO wild-type mice; type: in vivo, C57BL/6 mouse; conditions: 16 days daily sc, GIP-085 300 nmol/kg, semaglutide 3 nmol/kg, mean ± SEM, n=5-6 per group
Protocol: as §5

semaglutide
anorectic effects / food intake (DIO GLP-1R KO mice): absent
body weight (DIO GLP-1R KO mice): absent
cross-reactivity at the GIPR (DIO GIPR KO mice): lack of cross-reactivity
blood glucose levels following glucose (shrews [1]): significantly reduced glucose levels in a dose-dependent manner
blood glucose levels following glucose (shrews [1]; listed as Semaglutide): dose-dependently suppresses blood glucose levels
patients reporting nausea ([2]; STEP 1): 44.2%
patients reporting vomiting ([2]; STEP 1): 24.8%
weight loss ([2]; people with overweight/obesity without type 2 diabetes): double-digit weight loss
participants with dose reduction or temporary treatment interruption (GI side effects) ([2]; pooled STEP 1-3 trials): ~ 12.5%
permanent treatment discontinuation (GI side effects) ([2]; pooled STEP 1-3 trials): ~ 4.3%
total fat mass at the end of the experiment (GLP-1R KO DIO mice; 16 days daily sc, GIP-085 300 nmol/kg, semaglutide 3 nmol/kg, mean ± SEM, Veh: 17.3±0.8g): 15.5 ± 0.9 g
total lean mass at the end of the experiment (GLP-1R KO DIO mice; 16 days daily sc, GIP-085 300 nmol/kg, semaglutide 3 nmol/kg, mean ± SEM, Veh: 24.1±0.6g): 23.9 ± 0.7 g
body composition changes (GLP-1R KO DIO mice; semaglutide 3 nmol/kg and dual semaglutide/GIP-085, 16 days): No changes
body weight (shrews [3]): body weight loss
food intake (shrews [3]): induced anorexia
total fat mass at the end of the experiment (DIO wild-type mice; Veh: 17.9±0.5g): 12.2 ± 0.8 g
total lean mass at the end of the experiment (DIO wild-type mice; Veh: 24.8±0.6g): 24.6 ± 0.7 g
